Assay results reported in patent US8710043B2, “TRPM8 antagonists and their use in treatments” (Amgen Inc., priority 2011, dated 2014).

Molecular target: T1, human TRPM8 (Homo sapiens, UniProt Q7Z2W7)
T1 construct: expressed in transfected cells; host or cells: Chinese hamster ovary (CHO) cells, T-REx tetracycline-inducible system, co-transfected with aequorin
Test: Luminescence readout assay for measuring intracellular calcium, icilin activation
Format: cell-based
Conditions: CHO cells expressing human TRPM8, aequorin luminescence, 1 μM icilin activation; read-out: hTRPM8 IC50
Protocol: Luminescence Readout Assay for Measuring Intracellular Calcium.
A stable Chinese hamster ovary cell line expressing human TRPM8 was generated using tetracycline inducible T-REx™ expression system from Invitrogen, Inc. (Carlsbad, Calif.). […] Twenty four hours before the assay, cells were seeded in 96-well plates and TRPM8 expression was induced with 0.5 μg/mL tetracycline. […] Potential antagonists were added 2.5 min prior to the addition of agonist, 1 μM icilin, 100 μM L-menthol, or 1 min prior to the addition of cold buffer (<10° C.). The luminescence was measured by a CCD camera based FLASH-luminometer built by Amgen, Inc. A cooling device attached to FLASH luminometer was used for cold activation.

T1 sequence (Q7Z2W7 whole entry): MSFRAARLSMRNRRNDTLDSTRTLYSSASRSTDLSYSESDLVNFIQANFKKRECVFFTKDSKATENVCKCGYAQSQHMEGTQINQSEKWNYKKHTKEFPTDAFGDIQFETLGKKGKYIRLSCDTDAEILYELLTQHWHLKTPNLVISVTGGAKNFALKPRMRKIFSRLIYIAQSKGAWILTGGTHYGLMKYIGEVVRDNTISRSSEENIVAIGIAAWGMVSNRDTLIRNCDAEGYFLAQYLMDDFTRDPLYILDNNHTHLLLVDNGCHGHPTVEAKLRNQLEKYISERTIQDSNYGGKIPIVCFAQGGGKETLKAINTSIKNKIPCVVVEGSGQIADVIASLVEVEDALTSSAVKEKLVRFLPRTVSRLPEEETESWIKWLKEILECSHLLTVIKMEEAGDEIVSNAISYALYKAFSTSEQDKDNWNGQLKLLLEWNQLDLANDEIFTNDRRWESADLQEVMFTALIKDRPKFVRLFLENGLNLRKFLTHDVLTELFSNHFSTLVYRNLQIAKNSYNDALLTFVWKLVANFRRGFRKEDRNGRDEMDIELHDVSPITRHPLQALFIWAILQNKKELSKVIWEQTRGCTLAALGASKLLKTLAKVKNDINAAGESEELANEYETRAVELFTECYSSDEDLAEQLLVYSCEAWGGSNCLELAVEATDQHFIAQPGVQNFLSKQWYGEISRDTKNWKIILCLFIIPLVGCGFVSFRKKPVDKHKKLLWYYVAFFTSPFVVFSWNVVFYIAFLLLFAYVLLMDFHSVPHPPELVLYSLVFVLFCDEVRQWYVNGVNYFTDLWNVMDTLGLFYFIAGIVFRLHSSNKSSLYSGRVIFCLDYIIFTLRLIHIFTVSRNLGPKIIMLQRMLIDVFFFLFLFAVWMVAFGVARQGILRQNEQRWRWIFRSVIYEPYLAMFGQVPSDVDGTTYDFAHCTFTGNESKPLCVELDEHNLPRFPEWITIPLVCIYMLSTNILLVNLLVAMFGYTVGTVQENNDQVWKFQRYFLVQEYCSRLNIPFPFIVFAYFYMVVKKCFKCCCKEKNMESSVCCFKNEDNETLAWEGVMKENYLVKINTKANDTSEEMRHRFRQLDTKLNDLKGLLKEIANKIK

## O=C(N[C@@H](c1ccc(C(F)(F)F)cc1)c1ncccc1C(F)(F)F)c1ccc(=O)[nH]n1 [Example 150, (S)-6-oxo-N-((4-(trifluoromethyl)phenyl)(3-(trifluoromethyl)pyridin-2-yl)methyl)-1,6-dihydropyridazine-3-carboxamide]
  IC50: 178 nM

## COc1cccc(C(=O)N[C@@H](c2ccc(C(F)(F)F)cc2)c2ncccc2C(F)(F)F)c1 [Example 191, (S)-3-methoxy-N-((4-(trifluoromethyl)phenyl)(3-(trifluoromethyl)pyridin-2-yl)methyl)benzamide]
  IC50: 78.9 nM

## O=C(N[C@@H](c1ccc(C(F)(F)F)cc1)c1ncccc1C(F)(F)F)c1ccn2nnnc2c1 [Example 312, (S)-N-((4-(trifluoromethyl)phenyl)(3-(trifluoromethyl)pyridin-2-yl)methyl)tetrazolo[1,5-a]pyridine-7-carboxamide]
  IC50: 25.2 nM

## Cc1ccc([C@H](NC(=O)c2ccc(=O)[nH]c2)c2ncccc2F)cc1C [Example 380, (S)-N-((3,4-dimethylphenyl)(3-fluoropyridin-2-yl)methyl)-6-oxo-1,6-dihydropyridine-3-carboxamide]
  IC50: 245 nM

## O=C(N[C@@H](c1ccc(C(F)(F)F)cc1)c1ncccc1C(F)(F)F)c1ccc2cn[nH]c2c1 [Example 175, (S)-N-((4-(trifluoromethyl)phenyl)(3-(trifluoromethyl)pyridin-2-yl)methyl)-1H-indazole-6-carboxamide]
  IC50: 30.3 nM

## Cc1ncsc1CCC(=O)N[C@@H](c1ccc(C(F)(F)F)cc1)c1ncccc1C(F)(F)F [Example 145, (S)-3-(4-methylthiazol-5-yl)-N-((4-(trifluoromethyl)phenyl)(3-(trifluoromethyl)pyridin-2-yl)methyl)propanamide]
  IC50: 85.2 nM

## Cc1ccc(C(=O)N[C@@H](c2ccc(C(F)(F)F)cc2)c2ncccc2F)cn1 [Example 52, (S)-N-((3-fluoropyridin-2-yl)(4-(trifluoromethyl)phenyl)methyl)-6-methylnicotinamide]
  IC50: 40.1 nM

## CC#Cc1cccnc1[C@@H](NC(=O)c1ccc(=O)[nH]c1)c1ccc(C(F)(F)F)cc1 [Example 92, (S)-6-oxo-N-((3-(prop-1-yn-1-yl)pyridin-2-yl)(4-(trifluoromethyl)phenyl)methyl)-1,6-dihydropyridine-3-carboxamide]
  IC50: 10.3 nM

## C=Cc1cccnc1[C@@H](NC(=O)c1ccc(=O)[nH]c1)c1ccc(C(F)(F)F)cc1 [Example 363, (S)-6-oxo-N-((4-(trifluoromethyl)phenyl)(3-vinylpyridin-2-yl)methyl)-1,6-dihydropyridine-3-carboxamide]
  IC50: 29.5 nM

## CCCN1C(=O)c2ccc(C(=O)N[C@@H](c3ccc(C(F)(F)F)cc3)c3ncccc3C(F)(F)F)cc2C1=O [Example 269, (S)-1,3-Dioxo-2-propyl-N-((4-(trifluoromethyl)phenyl)(3-(trifluoromethyl)pyridin-2-yl)methyl)isoindoline-5-carboxamide]
  IC50: 136 nM

## O=C(N[C@@H](c1ccc(C(F)(F)F)cc1)c1ncccc1C(F)(F)F)c1cc2cccnc2[nH]1 [Example 66, (S)-N-((4-(trifluoromethyl)phenyl)(3-(trifluoromethyl)pyridin-2-yl)methyl)-1H-pyrrolo[2,3-b]pyridine-2-carboxamide]
  IC50: 405 nM

## O=C(N[C@@H](c1cnc2ccc(Cl)cc2c1)c1ncccc1C(F)(F)F)c1ccc(=O)[nH]c1 [Example 16, (S)-N-((6-chloroquinolin-3-yl)(3-(trifluoromethyl)pyridin-2-yl)methyl)-6-hydroxynicotinamide]
  IC50: 80.7 nM

## O=C(N[C@@H](c1ccc(C(F)(F)F)cc1)c1ncccc1C(F)(F)F)c1ccc2cc[nH]c2n1 [Example 67, (S)-N-((4-(trifluoromethyl)phenyl)(3-(trifluoromethyl)pyridin-2-yl)methyl)-1H-pyrrolo[2,3-b]pyridine-6-carboxamide]
  IC50: 40 nM

## O=C1CCc2cc(C(=O)N[C@@H](c3ccc(OC(F)(F)F)cc3)c3ncccc3F)ccc2N1 [Example 352, (S)-N-((3-fluoropyridin-2-yl)(4-(trifluoromethoxy)phenyl)methyl)-2-oxo-1,2,3,4-tetrahydroquinoline-6-carboxamide]
  IC50: 18.8 nM

## Cc1cccnc1[C@@H](NC(=O)c1ccc(=O)n(C)c1)c1ccc(C(F)(F)F)cc1 [Example 83, (S)-1-methyl-N-((3-methylpyridin-2-yl)(4-(trifluoromethyl)phenyl)methyl)-6-oxo-1,6-dihydropyridine-3-carboxamide 2,2,2-trifluoroacetate]
  IC50: 39.2 nM

## CC(C)(C)OC(=O)N1CCCC(C(=O)N[C@@H](c2ccc(C(F)(F)F)cc2)c2ncccc2C(F)(F)F)C1 (stereo partly drawn) [Example 142, tert-butyl 3-(((S)-(4-(trifluoromethyl)phenyl)(3-(trifluoromethyl)pyridin-2-yl)methyl)carbamoyl)piperidine-1-carboxylate]
  IC50: 144 nM

## N#Cc1ccc(C(=O)N[C@@H](c2ccc(C(F)(F)F)cc2)c2ncccc2C(F)(F)F)nc1 [Example 275, (S)-5-Cyano-N-((4-(trifluoromethyl)phenyl)(3-(trifluoro-methyl)pyridin-2-yl)methyl)picolinamide]
  IC50: 68.6 nM

## Cn1ccnc1C(=O)N[C@@H](c1ccc(C(F)(F)F)cc1)c1ncccc1C(F)(F)F [Example 146, (S)-1-methyl-N-((4-(trifluoromethyl)phenyl)(3-(trifluoromethyl)pyridin-2-yl)methyl)-1H-imidazole-2-carboxamide]
  IC50: 180 nM

## Cc1cc(C(=O)N[C@@H](c2ccc(C(F)(F)F)cc2)c2ncccc2C(F)(F)F)ccn1 [Example 39, (S)-2-methyl-N-((4-(trifluoromethyl)phenyl)(3-(trifluoromethyl)pyridin-2-yl)methyl)isonicotinamide]
  IC50: 17.8 nM

## O=C1COc2c(cccc2C(=O)N[C@@H](c2ccc(C(F)(F)F)cc2)c2ncccc2F)N1 [Example 77]
  IC50: 53 nM

## CS(=O)(=O)c1cccc(C(=O)N[C@@H](c2ccc(C(F)(F)F)cc2)c2ncccc2F)c1 [Example 216, (S)-N-((3-fluoropyridin-2-yl)(4-(trifluoromethyl)phenyl)methyl)-3-(methylsulfonyl)benzamide]
  IC50: 143 nM

## O=C(N[C@@H](c1ccc(C(F)(F)F)cc1)c1ncccc1F)c1cccs1 [Example 375, (S)-N-((3-fluoropyridin-2-yl)(4-(trifluoromethyl)phenyl)methyl)thiophene-2-carboxamide]
  IC50: 30.3 nM

## O=C(N[C@@H](c1ccc(OC(F)(F)F)c(F)c1)c1ccccn1)c1ccc2[nH]c(=O)oc2c1 [Example 391, (S)-N-((3-fluoro-4-(trifluoromethoxy)phenyl)(pyridin-2-yl)methyl)-2-oxo-2,3-dihydrobenzo[d]oxazole-6-carboxamide]
  IC50: 11.7 nM

## O=C(Cc1c[nH]cn1)N[C@@H](c1ccc(C(F)(F)F)cc1)c1ncccc1C(F)(F)F [Example 158, (S)-2-(1H-imidazol-4-yl)-N-((4-(trifluoromethyl)phenyl)(3-(trifluoromethyl)pyridin-2-yl)methyl)acetamide]
  IC50: 1950 nM

## Cc1nc2cc(C(=O)N[C@@H](c3ccc(C(F)(F)F)cc3)c3ncccc3F)ccc2[nH]1 [Example 397, (S)-N-((3-fluoropyridin-2-yl)(4-(trifluoromethyl)phenyl)methyl)-2-methyl-1H-benzo[d]imidazole-5-carboxamide]
  IC50: 10.3 nM

## O=C(N[C@@H](c1ccc(C(F)(F)F)cc1)c1ncccc1C(F)(F)F)c1ccc(O)cn1 [Example 64, (S)-5-hydroxy-N-((4-(trifluoromethyl)phenyl)(3-(trifluoromethyl)pyridin-2-yl)methyl)picolinamide]
  IC50: 20 nM

## Cn1ccc(C(=O)N[C@@H](c2ccc(C(F)(F)F)cc2)c2ncccc2C(F)(F)F)n1 [Example 192, (S)-1-methyl-N-((4-(trifluoromethyl)phenyl)(3-(trifluoromethyl)pyridin-2-yl)methyl)-1H-pyrazole-3-carboxamide]
  IC50: 79 nM

## N#Cc1cccc(C(=O)N[C@@H](c2ccc(C(F)(F)F)cc2)c2ncccc2C(F)(F)F)c1 [Example 168, (S)-3-cyano-N-((4-(trifluoromethyl)phenyl)(3-(trifluoromethyl)pyridin-2-yl)methyl)be]
  IC50: 38.4 nM

## Cc1cc(C)cc([C@H](NC(=O)c2ccc(=O)[nH]c2)c2ncccc2F)c1 [Example 324, (S)-N-((3,5-dimethylphenyl)(3-fluoropyridin-2-yl)methyl)-6-oxo-1,6-dihydropyridine-3-carboxamide]
  IC50: 1050 nM

## O=C(CC1CCOC1)N[C@@H](c1ccc(C(F)(F)F)cc1)c1ncccc1C(F)(F)F (stereo partly drawn) [Example 157, 2-(THF-3-yl)-N-((S)-(4-(trifluoromethyl)phenyl)(3-(trifluoromethyl)pyridin-2-yl)methyl)acetamide]
  IC50: 716 nM

## O=C(NC(c1ccc(OC(F)(F)F)c(F)c1)c1c(F)cccc1F)c1ccc(=O)[nH]c1 (stereo not drawn) [Example 418, N-((2,6-difluorophenyl)(3-fluoro-4-(trifluoromethoxy)phenyl)methyl)-6-oxo-1,6-dihydropyridine-3-carboxamide]
  IC50: 65 nM

## O=C(N[C@@H](c1ccc(C(F)(F)F)c(F)c1)c1ncccc1C(F)(F)F)[C@@H]1CCCO1 [Example 119, (S)-N-((S)-(3-fluoro-4-(trifluoromethyl)phenyl)(3-(trifluoromethyl)pyridin-2-yl)methyl)THF-2-carboxamide]
  IC50: 100 nM

## O=C(N[C@@H](c1ccc(C(F)(F)F)cc1)c1ncccc1F)c1ccc2cn[nH]c2c1 [Example 166, (S)-N-((3-fluoropyridin-2-yl)(4-(trifluoromethyl)phenyl)methyl)-1H-indazole-6-carboxamide]
  IC50: 7.6 nM
